# Like-named read-outs stand apart in the source and are kept apart here.
# Experiments:
# MOLM14 cells = test: Proliferation assay, spheroid-like growth, MOLM14 (MLL-AF9 rearranged); format: cell-based, human; conditions: 8 days, confluence as measure of spheroid size, read-out: spheroid assay_OneTime MOLM14 IC50
# Method in brief: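 IC50 derived from a variable-slope dose-response fit of percent confluence change, with DMSO-treated cells as high control and high-dose reference compound as low control. Spheroid-like growth of MOLM14 (200 cells/well) or KO-52 (300 cells/well) in ultra-low attachment plates, 8 days, 37° C, 5% CO2, DMSO normalised to 0.3%, imaged at day 8.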
# KO-52 cells = test: Proliferation assay, spheroid-like growth, KO-52 (MLL wildtype control cell line); format: cell-based, human; conditions: KO-52 control cells, 8 days, confluence as measure of spheroid size, read-out: spheroid assay_OneTime KO-52 IC50
# Protocol: The anti-proliferative effect of menin/MLL protein/protein interaction inhibitor test compounds was assessed in human leukemia cell lines. The cell line MOLM14 harbors a MLL translocation and expresses the MLL fusion proteins MLL-AF9, respectively, as well as the wildtype protein from the second allele. […] KO-52 was used as a control cell line containing two MLL (KMT2A) wildtype alleles in order to exclude compounds that display general cytotoxic effects.
# MOLM14 cells were cultured in RPMI-1640 (Sigma Aldrich) supplemented with 10% heat-inactivated fetal bovine serum (HyClone), 2 mM L-glutamine (Sigma Aldrich) and 50 μg/ml gentamycin (Gibco). KO-52 cell lines were propagated in alpha-MEM (Sigma Aldrich) supplemented with 20% heat-inactivated fetal bovine serum (HyClone), 2 mM L-glutamine (Sigma Aldrich) and 50 μg/ml gentamycin (Gibco).
# In order to assess the anti-proliferative effects, 200 MOLM14 cells, or 300 KO-52 cells were seeded in 200 μl media per well in 96-well round bottom, ultra-low attachment plates (Costar, catalogue number 7007). Cell seeding numbers were chosen based on growth curves to ensure linear growth throughout the experiment. Test compounds were added at different concentrations and the DMSO content was normalized to 0.3%. Cells were incubated for 8 days at 37° C. and 5% CO2. Spheroid like growth was measured in real-time by live-cell imaging (IncuCyteZOOM, Essenbio, 4× objective) acquiring images at day 8. Confluence (%) as a measure of spheroid size was determined using an integrated analysis tool.
# In order to determine the effect of the test compounds over time, the confluence in each well as a measure of spheroid size, was calculated. Confluence of the highest dose of a reference compound was used as baseline for the LC (Low control) and the confluence of DMSO treated cells was used as 0% cytotoxicity (High Control, HC).
# Absolute IC50 values were calculated as percent change in confluence as follows:
# LC=Low Control: cells treated with e.g. 1 μM of the cytotoxic agent staurosporin, or e.g. cells treated with a high concentration of an alternative reference compound
# GraphPad Prism (version 7.00) was used to calculate the IC50. Dose-response equation was used for the plot of % Effect vs Log 10 compound concentration with a variable slope and fixing the maximum to 100% and the minimum to 0%.
# [1] = target: T1, menin/MLL (terbium chelate-labeled menin, FITC-MBM1 peptide) (Homo sapiens, UniProt O00255, T541A); test: Menin/MLL homogenous time-resolved fluorescence (HTRF) assay; format: binding; conditions: 30 min incubation
# T1 construct: Menin (a.a 1-610-6xhis tag)
# T1 sequence (O00255 with tags, fused parts or gaps T541A): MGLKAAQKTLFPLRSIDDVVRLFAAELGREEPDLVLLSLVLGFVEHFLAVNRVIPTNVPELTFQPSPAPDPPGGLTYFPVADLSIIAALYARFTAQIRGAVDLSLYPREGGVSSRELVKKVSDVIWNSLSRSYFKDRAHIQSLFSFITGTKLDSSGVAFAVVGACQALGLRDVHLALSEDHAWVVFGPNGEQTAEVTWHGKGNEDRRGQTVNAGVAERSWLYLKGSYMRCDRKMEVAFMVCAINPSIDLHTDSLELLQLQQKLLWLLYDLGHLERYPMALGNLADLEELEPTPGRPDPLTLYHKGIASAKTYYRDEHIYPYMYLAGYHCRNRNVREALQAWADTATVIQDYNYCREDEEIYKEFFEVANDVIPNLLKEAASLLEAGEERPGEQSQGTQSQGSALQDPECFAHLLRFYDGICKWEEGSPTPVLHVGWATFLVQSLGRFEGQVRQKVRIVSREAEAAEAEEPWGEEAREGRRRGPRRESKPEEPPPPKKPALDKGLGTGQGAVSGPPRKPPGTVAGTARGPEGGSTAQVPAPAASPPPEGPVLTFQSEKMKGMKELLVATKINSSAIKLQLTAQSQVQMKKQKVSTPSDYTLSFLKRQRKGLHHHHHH
# Method in brief: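 Compounds were preincubated 30 min at ambient temperature with 200 pM terbium-labeled menin (aa 1-610, His-tagged) in Tris pH 7.5 buffer with DTT and Pluronic, then 75 nM FITC-MBM1 peptide added for 15 min. HTRF ratio 520/490 nm gave % inhibition; IC50 from four-parameter fit, floor 0.1 nM.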
"IC50 (MOLM14 cells; Homo sapiens, MOLM-14, 192 h) [nM]",IC50 [1] [nM],IC50 (MOLM14 cells) [nM],Compound,"IC50 (KO-52 cells; Homo sapiens, 192 h) [nM]",IC50 (KO-52 cells) [nM]
10,0.2,–,"CC(C)[C@H]([C@H]1C[C@@H](N2CC[C@@H](O)C23CC3)C1)N1CC2(CCN(c3ncnnc3Oc3ccc(F)cc3-c3cncnc3C3CC3)C2)C1 (single isomer, unassigned) [Compound 40]",500,–
12,0.2,–,"CC(C)[C@H]([C@H]1C[C@@H](N2CC[C@H](O)C23CC3)C1)N1CC2(CCN(c3ncnnc3Oc3ccc(F)cc3-c3cncnc3C3CC3)C2)C1 (single isomer, unassigned) [Compound 41]",> 15000,–
< 2,0.2,–,"CC(C)[C@H]([C@H]1C[C@@H](N2C[C@H](O)C3(CC3)C2)C1)N1CC2(CCN(c3ncnnc3Oc3ccc(F)cc3-c3cncnc3C3CC3)C2)C1 (single isomer, unassigned) [Compound 45]",6330,–
2,0.1,–,"CC(C)[C@H]([C@H]1C[C@@H](N2C[C@@H](O)C3(CC3)C2)C1)N1CC2(CCN(c3ncnnc3Oc3ccc(F)cc3-c3cncnc3C3CC3)C2)C1 (single isomer, unassigned) [Compound 46]",5930,–
3,0.2,–,"CC(C)[C@H]([C@H]1C[C@@H](N2CC[C@@](C)(O)C2)C1)N1CC2(CCN(c3ncnnc3Oc3ccc(F)cc3-c3cncnc3C3CC3)C2)C1 (single isomer, unassigned) [Compound 47]",4360,–
4,0.3,–,"CC(C)[C@H]([C@H]1C[C@@H](N2CCCCC2)C1)N1CC2(CCN(c3ncnnc3Oc3ccc(F)cc3-c3cncnc3C3CC3)C2)C1 (single isomer, unassigned) [Compound 48]",1060,–
27,0.6,–,"CC(C)[C@H]([C@H]1C[C@H](N2CCCCC2)C1)N1CC2(CCN(c3ncnnc3Oc3ccc(F)cc3-c3cncnc3C3CC3)C2)C1 (single isomer, unassigned) [Compound 49]",2130,–
< 2,0.1,–,"CC(C)[C@H]([C@H]1C[C@@H](N2CCC[C@@H](C(=O)N(C)C)C2)C1)N1CC2(CCN(c3ncnnc3Oc3ccc(F)cc3-c3cncnc3C3CC3)C2)C1 (single isomer, unassigned) [Compound 50]",> 15000,–
14,0.1,–,"CC(C)[C@H]([C@H]1C[C@@H](N2CCC[C@H](C(=O)N(C)C)C2)C1)N1CC2(CCN(c3ncnnc3Oc3ccc(F)cc3-c3cncnc3C3CC3)C2)C1 (single isomer, unassigned) [Compound 51]",14400,–
210,0.4,–,"CC(C)[C@H]([C@H]1C[C@H](N2CCC[C@H](C(=O)N(C)C)C2)C1)N1CC2(CCN(c3ncnnc3Oc3ccc(F)cc3-c3cncnc3C3CC3)C2)C1 (single isomer, unassigned) [Compound 52]",14000,–
5,0.2,–,"CC(=O)N1CC2(CCN([C@H]3C[C@@H]([C@@H](C(C)C)N4CC5(CCN(c6ncnnc6Oc6ccc(F)cc6-c6cncnc6C6CC6)C5)C4)C3)C2)C1 (single isomer, unassigned) [Compound 53]",9280,–
–,0.3,28,"CC(=O)N1CCC2C1CCN2[C@H]1C[C@@H]([C@@H](C(C)C)N2CC3(CCN(c4ncnnc4Oc4ccc(F)cc4-c4cncnc4C4CC4)C3)C2)C1 (single isomer, unassigned) [Compound 54]",4960,–
–,0.5,95,"CC(=O)N1CCC2C1CCN2[C@H]1C[C@@H]([C@@H](C(C)C)N2CC3(CCN(c4ncnnc4Oc4ccc(F)cc4-c4cncnc4C4CC4)C3)C2)C1 (single isomer, unassigned) [Compound 55]",–,6430
350,0.4,–,"CC(=O)N1CC2(CCCN2[C@H]2C[C@@H]([C@@H](C(C)C)N3CC4(CCN(c5ncnnc5Oc5ccc(F)cc5-c5cncnc5C5CC5)C4)C3)C2)C1 (single isomer, unassigned) [Compound 56]",> 15000,–
–,0.1,8,"CC(=O)N1CCC2CN([C@H]3C[C@@H]([C@@H](C(C)C)N4CC5(CCN(c6ncnnc6Oc6ccc(F)cc6-c6cncnc6C6CC6)C5)C4)C3)CC21 (single isomer, unassigned) [Compound 57]",7540,–
–,0.1,19,"CC(=O)N1CCC2CN([C@H]3C[C@@H]([C@@H](C(C)C)N4CC5(CCN(c6ncnnc6Oc6ccc(F)cc6-c6cncnc6C6CC6)C5)C4)C3)CC21 (single isomer, unassigned) [Compound 58]",–,> 15000
24,0.1,–,"CC(=O)N1CC[C@@]12CCN([C@H]1C[C@@H]([C@@H](C(C)C)N3CC4(CCN(c5ncnnc5Oc5ccc(F)cc5-c5cncnc5C5CC5)C4)C3)C1)C2 (single isomer, unassigned) [Compound 59]",5010,–
7,0.2,–,"CC(=O)N1CC[C@]12CCN([C@H]1C[C@@H]([C@@H](C(C)C)N3CC4(CCN(c5ncnnc5Oc5ccc(F)cc5-c5cncnc5C5CC5)C4)C3)C1)C2 (single isomer, unassigned) [Compound 60]",3370,–
4,0.1,–,"CC(C)[C@H]([C@H]1C[C@@H](N2CCC(C)(C(=O)N(C)C)CC2)C1)N1CC2(CCN(c3ncnnc3Oc3ccc(F)cc3-c3cncnc3C3CC3)C2)C1 (single isomer, unassigned) [Compound 62]",6260,–
2,0.1,–,"CC(=O)N1CC2CN([C@H]3C[C@@H]([C@@H](C(C)C)N4CC5(CCN(c6ncnnc6Oc6ccc(F)cc6-c6cncnc6C6CC6)C5)C4)C3)CC2C1 (single isomer, unassigned) [Compound 64]",> 15000,–
130,0.2,–,"CC(=O)N1CC2CN([C@H]3C[C@H]([C@@H](C(C)C)N4CC5(CCN(c6ncnnc6Oc6ccc(F)cc6-c6cncnc6C6CC6)C5)C4)C3)CC2C1 (single isomer, unassigned) [Compound 65]",11800,–
6,0.1,–,"CC(C)[C@H]([C@H]1C[C@@H](N2CC[C@@]3(CCN(C)C3=O)C2)C1)N1CC2(CCN(c3ncnnc3Oc3ccc(F)cc3-c3cncnc3C3CC3)C2)C1 (single isomer, unassigned) [Compound 66]",> 15000,–

# From US20240417405A1, “Substituted Spiro Derivatives” (Janssen Pharmaceutica NV, priority 2021, published 2024)
